Test results as given in ChEMBL document CHEMBL1154382, “Preliminary SAR analysis of novel antiproliferative N(6),5'-bis-ureidoadenosine derivatives” (2009).
Active and inactive are the calls of the source.

Key:
Assay type in all cases: functional
CCRF-CEM = assay: Antiproliferative activity against human CCRF-CEM cells at 10 uM assessed as cell growth inhibition relative to control
HL-60(TB) = assay: Antiproliferative activity against human HL-60(TB) cells at 10 uM assessed as cell growth inhibition relative to control
K562 = assay: Antiproliferative activity against human K562 cells at 10 uM assessed as cell growth inhibition relative to control
MOLT-4 = assay: Antiproliferative activity against human MOLT4 cells at 10 uM assessed as cell growth inhibition relative to control
RPMI8266 = assay: Antiproliferative activity against human […] cells at 10 uM assessed as cell growth inhibition relative to control
A549 = assay: Antiproliferative activity against human A549 cells at 10 uM assessed as cell growth inhibition relative to control
EKVX = assay: Antiproliferative activity against human EKVX cells at 10 uM assessed as cell growth inhibition relative to control
PC-3 = assay: Antiproliferative activity against human PC3 cells at 10 uM assessed as cell growth inhibition relative to control
HOP-62 = assay: Antiproliferative activity against human HOP62 cells at 10 uM assessed as cell growth inhibition relative to control
HOP-92 = assay: Antiproliferative activity against human HOP92 cells at 10 uM assessed as cell growth inhibition relative to control
NCI-H226 = assay: Antiproliferative activity against human NCI-H226 cells at 10 uM assessed as cell growth inhibition relative to control
NCI-H23 = assay: Antiproliferative activity against human NCI-H23 cells at 10 uM assessed as cell growth inhibition relative to control
NCI-H322M = assay: Antiproliferative activity against human NCI-H322M cells at 10 uM assessed as cell growth inhibition relative to control
NCI-H460 = assay: Antiproliferative activity against human NCI-H460 cells at 10 uM assessed as cell growth inhibition relative to control
NCI-H522 = assay: Antiproliferative activity against human NCI-H522 cells at 10 uM assessed as cell growth inhibition relative to control
COLO 205 = assay: Antiproliferative activity against human COLO205 cells at 10 uM assessed as cell growth inhibition relative to control
HCC 2998 = assay: Antiproliferative activity against human HCC2998 cells at 10 uM assessed as cell growth inhibition relative to control
HCT-116 = assay: Antiproliferative activity against human HCT116 cells at 10 uM assessed as cell growth inhibition relative to control
HCT-15 = assay: Antiproliferative activity against human HCT15 cells at 10 uM assessed as cell growth inhibition relative to control
HT-29 = assay: Antiproliferative activity against human HT-29 cells at 10 uM assessed as cell growth inhibition relative to control
KM12 = assay: Antiproliferative activity against human KM12 cells at 10 uM assessed as cell growth inhibition relative to control
SW-620 = assay: Antiproliferative activity against human SW620 cells at 10 uM assessed as cell growth inhibition relative to control
LOX IMVI = assay: Antiproliferative activity against human LOXIMVI cells at 10 uM assessed as cell growth inhibition relative to control
Malme-3M = assay: Antiproliferative activity against human MALME-3M cells at 10 uM assessed as cell growth inhibition relative to control
M14 = assay: Antiproliferative activity against human M14 cells at 10 uM assessed as cell growth inhibition relative to control
SK-MEL-2 = assay: Antiproliferative activity against human SK-MEL-2 cells at 10 uM assessed as cell growth inhibition relative to control
SK-MEL-28 = assay: Antiproliferative activity against human SK-MEL-28 cells at 10 uM assessed as cell growth inhibition relative to control
SK-MEL-5 = assay: Antiproliferative activity against human SK-MEL-5 cells at 10 uM assessed as cell growth inhibition relative to control
UACC-257 = assay: Antiproliferative activity against human UACC257 cells at 10 uM assessed as cell growth inhibition relative to control
UACC-62 = assay: Antiproliferative activity against human UACC62 cells at 10 uM assessed as cell growth inhibition relative to control
SF-268 = assay: Antiproliferative activity against human SF268 cells at 10 uM assessed as cell growth inhibition relative to control
SF-295 = assay: Antiproliferative activity against human SF295 cells at 10 uM assessed as cell growth inhibition relative to control
SF-539 = assay: Antiproliferative activity against human SF539 cells at 10 uM assessed as cell growth inhibition relative to control
SNB-19 = assay: Antiproliferative activity against human SNB19 cells at 10 uM assessed as cell growth inhibition relative to control
SNB-75 = assay: Antiproliferative activity against human SNB75 cells at 10 uM assessed as cell growth inhibition relative to control
U-251 = assay: Antiproliferative activity against human U251 cells at 10 uM assessed as cell growth inhibition relative to control
IGROV-1 = assay: Antiproliferative activity against human IGROV1 cells at 10 uM assessed as cell growth inhibition relative to control
OVCAR-3 = assay: Antiproliferative activity against human OVCAR-3 cells at 10 uM assessed as cell growth inhibition relative to control
OVCAR-4 = assay: Antiproliferative activity against human OVCAR4 cells at 10 uM assessed as cell growth inhibition relative to control
OVCAR-5 = assay: Antiproliferative activity against human OVCAR5 cells at 10 uM assessed as cell growth inhibition relative to control
OVCAR-8 = assay: Antiproliferative activity against human OVCAR8 cells at 10 uM assessed as cell growth inhibition relative to control
SK-OV-3 = assay: Antiproliferative activity against human SKOV3 cells at 10 uM assessed as cell growth inhibition relative to control
786-0 = assay: Antiproliferative activity against human 786-0 cells at 10 uM assessed as cell growth inhibition relative to control
A498 = assay: Antiproliferative activity against human A498 cells at 10 uM assessed as cell growth inhibition relative to control
ACHN = assay: Antiproliferative activity against human ACHN cells at 10 uM assessed as cell growth inhibition relative to control
CAKI-1 = assay: Antiproliferative activity against human Caki1 cells at 10 uM assessed as cell growth inhibition relative to control
RXF 393 = assay: Antiproliferative activity against human RXF393 cells at 10 uM assessed as cell growth inhibition relative to control
SN12C = assay: Antiproliferative activity against human SN12C cells at 10 uM assessed as cell growth inhibition relative to control
TK-10 = assay: Antiproliferative activity against human TK10 cells at 10 uM assessed as cell growth inhibition relative to control
UO-31 = assay: Antiproliferative activity against human UO31 cells at 10 uM assessed as cell growth inhibition relative to control
BT-549 = assay: Antiproliferative activity against human BT549 cells at 10 uM assessed as cell growth inhibition relative to control
Hs-578T = assay: Antiproliferative activity against human Hs 578T cells at 10 uM assessed as cell growth inhibition relative to control
MCF7 = assay: Antiproliferative activity against human MCF7 cells at 10 uM assessed as cell growth inhibition relative to control
MDA-MB-231 = assay: Antiproliferative activity against human MDA-MB-231 cells at 10 uM assessed as cell growth inhibition relative to control
MDA-MB-468 = assay: Antiproliferative activity against human MDA-MB-468 cells at 10 uM assessed as cell growth inhibition relative to control
T47D = assay: Antiproliferative activity against human T47D cells at 10 uM assessed as cell growth inhibition relative to control
DU-145 = assay: Antiproliferative activity against human DU145 cells at 10 uM assessed as cell growth inhibition relative to control

Measured: growth inhibition (GI)

CNC(=O)NC[C@H]1O[C@@H](n2cnc3c(NC(=O)Nc4ccccc4)ncnc32)[C@H](O)[C@@H]1O
inactive: CCRF-CEM | HL-60(TB) | K562 | MOLT-4 | RPMI8266 | A549 | EKVX | PC-3 | HOP-62 | HOP-92 | NCI-H226 | NCI-H23 | NCI-H322M | NCI-H460 | NCI-H522 | COLO 205 | HCC 2998 | HCT-116 | HCT-15 | HT-29 | KM12 | SW-620 | LOX IMVI | Malme-3M | M14 | SK-MEL-2 | SK-MEL-28 | SK-MEL-5 | UACC-257 | UACC-62 | SF-268 | SF-295 | SF-539 | SNB-19 | SNB-75 | U-251 | IGROV-1 | OVCAR-3 | OVCAR-4 | OVCAR-5 | OVCAR-8 | SK-OV-3 | 786-0 | A498 | ACHN | CAKI-1 | RXF 393 | SN12C | TK-10 | UO-31 | BT-549 | Hs-578T | MCF7 | MDA-MB-231 | MDA-MB-468 | T47D | DU-145
